This test deals with NSP14 (Severe acute respiratory syndrome coronavirus 2, UniProt P0DTD1). The test is described as follows: NSP14 MTase inhibition assay at 37° C. (MTase-Glo SAH detection). To be noted: 0.3 nM NSP14, 2.5 μM SAM, 2.5 μM GpppA RNA, read-out: Nsp14 Mtase Inh. IC50. In kind it is biochemical, SARS-CoV-2.

Read-outs that look alike come from different tables or passages of the source.

A word on the IC50: it is the concentration needed to halve the response being measured. On to `Cc1c(S(=O)(=O)c2ccc3[nH]ncc3c2)cc(C(=O)N[C@@H]2CCN(c3cccnn3)C2)n1C` [A.99], for which the IC50 (45 min at 37° C.) came to 0.38 nM.
As for `Cc1c(S(=O)(=O)c2ccc3[nH]ncc3c2)cc(C(=O)NCc2c(Cl)cc[nH]c2=O)n1C` [B.187], the IC50 (37° C.) turned out to be 0.61 nM.
As to `Cc1c(S(=O)(=O)c2ccc3[nH]ncc3c2)cc(C(=O)N[C@@H]2CCN(c3cnccn3)C2)n1C` [A.71], the half-maximal inhibitory concentration (IC50) (45 min at 37° C.) was found to be 0.55 nM.
For `Cc1c(S(=O)(=O)c2cc(Cl)c3[nH]ncc3c2)cc(C(=O)NCc2c(F)ccc3nnn(C4CC4)c23)n1C` [B.153], for the setting “37° C.”, the IC50 was under 0.15 nM.
Regarding `Cc1c(S(=O)(=O)c2ccc(C#N)cc2)cc(C(=O)NCc2cccc3cnn(C)c23)n1C` [A.24], the IC50 (45 min at 37° C.) is 89 nM.
Same read-out and setting: for `Cc1c(S(=O)(=O)c2ccc3[nH]ncc3c2)cc(C(=O)N[C@@H]2CCN(c3ccccc3OC(F)(F)F)C2)n1C` [A.85] the value was 27 nM.
As for `Cc1c(S(=O)(=O)c2ccc3[nH]ncc3c2)cc(C(=O)NCc2ccc(=O)n(C)c2)n1C` [B.177], the IC50 (37° C.) was found to be 138 nM.
Still for that read-out and setting: in the case of `Cc1c(S(=O)(=O)c2cccc(C#N)c2)cc(C(=O)NCc2cccc3ncn(C4CC4)c23)n1C` [B.3] it was 5.3 nM.
On the same count and under the same terms, in the case of `Cc1c(S(=O)(=O)c2ccc3[nH]ncc3c2)cc(C(=O)NC2CCc3cc(F)c(F)cc32)n1C` (racemic) [B.92] it was 27 nM.
Same read-out and setting: in the case of `Cc1c(S(=O)(=O)c2ccc3[nH]ncc3c2)cc(C(=O)NCc2c(F)cccc2Cl)n1C` [B.85] it was 0.2 nM.
As to `Cc1c(S(=O)(=O)c2ccc3[nH]ncc3c2)cc(C(=O)NCc2c(F)cccc2OCCS(C)(=O)=O)n1C` [B.108], the half-maximal inhibitory concentration (IC50) (37° C.) was under 0.15 nM.
Consider `CN=S(=O)(c1ccc2[nH]ncc2c1)c1cc(C(=O)N[C@@H]2CCN(c3ncc(F)cn3)C2)n(C)c1C` (stereo partly drawn) [A.70], for which the IC50 (45 min at 37° C.) came out at 3.9 nM.
With `Cc1c(S(=O)(=O)c2ccc3[nH]ncc3c2)cc(C(=O)NCc2cccc3c(F)n[nH]c23)n1C` [B.31], the IC50 (37° C.) turned out to be 5.4 nM.
On the same count and under the same terms, in the case of `Cc1c(S(=O)(=O)c2cccc(C#N)c2)cc(C(=O)NCc2cccc3ncn(C)c23)n1C` [B.4] it was 4.9 nM.
Take `Cc1c(S(=O)(=O)c2cccc(C#N)c2)cc(C(=O)NCc2cccc3cnn(C)c23)n1C` [A.6, 4-(3-cyanophenyl)sulfonyl-1,5-dimethyl-N-[(1-methylindazol-7-yl)methyl]pyrrole-2-carboxamide]: where the note is “45 min at 37° C.”, the IC50 came to 1.7 nM.
For `Cc1c(S(=O)(=O)c2cccc(C#N)c2)cc(C(=O)NCc2cccc3cnn(C4CC4)c23)n1C` [B.14], the IC50 (37° C.) came to 23.1 nM.
For `Cc1c(S(=O)(=O)c2ccc3[nH]ncc3c2)cc(C(=O)NCc2cccc3c(F)nn(C)c23)n1C` [B.44], the IC50 (37° C.) was determined as 0.24 nM.
Consider `Cc1c(S(=O)(=O)c2ccc3[nH]ncc3c2)cc(C(=O)NCc2cncn2C)n1C` [B.146], for which the half-inhibitory concentration (IC50) (37° C.) turned out to be 29 nM.
Take `Cc1c(S(=O)(=O)c2ccncc2)cc(C(=O)NCc2cccc3cnn(C)c23)n1C` [A.27]: the 50% inhibitory concentration (IC50) (45 min at 37° C.) was found to be 102 nM.
Turning to `Cc1c(S(=O)(=O)c2ccc3[nH]nc(F)c3c2)cc(C(=O)NCc2c(F)ccc3ncn(C4CC4)c23)n1C` [B.103], where the note is “37° C.”, the IC50 is under 0.15 nM.
Same read-out and setting: in the case of `Cc1c(S(=O)(=O)c2ccc3[nH]ncc3c2)cc(C(=O)NCc2cncc3cnn(C)c23)n1C` [B.49] it was 0.49 nM.
For `Cc1c(S(=O)(=O)c2ccc3[nH]ncc3c2)cc(C(=O)NCc2cccc3ccc(=O)n(C)c23)n1C` [B.11], under “37° C.”, the IC50 was 2.1 nM.
Same read-out and setting: for `Cc1c(S(=O)(=O)c2ccc3[nH]ncc3c2)cc(C(=O)NCc2c(Cl)cnn2C)n1CC(F)(F)F` [B.185] the value was 3.9 nM; for `Cc1cc(C)n(C)c(=O)c1CNC(=O)c1cc(S(=O)(=O)c2ccc3[nH]ncc3c2)c(C)n1C` [B.164], 0.85 nM.
On the same count and under the same terms, in the case of `Cc1c(S(=O)(=O)c2ccc3[nH]ncc3c2)cc(C(=O)NCc2c(F)ccc3nnn(C)c23)n1C` [B.43] it was under 0.15 nM; in that of `Cc1c(S(=O)(=O)c2cc(F)c3[nH]ncc3c2)cc(C(=O)NCc2c[nH]c(=O)c3ccccc23)n1C` [B.109], 0.24 nM.
For the molecule `Cc1c(S(=O)(=O)c2ccc3[nH]ncc3c2)cc(C(=O)NCc2cnn3ccccc23)n1C` [B.163], for the setting “37° C.”, the IC50 is 3 nM.
On the same count and under the same terms, in the case of `Cc1c(S(=O)(=O)c2cccc(C#N)c2)cc(C(=O)NCc2c(Cl)cnn2C)n1C` [B.183] it was 17 nM.
In the case of `Cc1c(S(=O)(=O)c2ccc3[nH]ncc3c2)cc(C(=O)N[C@@H]2CCN(c3ccnc(C(F)F)c3)C2)n1C` [A.107], the IC50 (45 min at 37° C.) is 0.17 nM.
Take `Cc1c(S(=O)(=O)c2ccc3[nH]ncc3c2)cc(C(=O)NCc2c(F)cnn2C)n1C` [B.154]: for the setting “37° C.”, the IC50 was determined as 0.56 nM.
For `Cc1c(S(=O)(=O)c2ccc(C(N)=O)cc2)cc(C(=O)NCc2cccc3cnn(C)c23)n1C` [A.21], the half-inhibitory concentration (IC50) (45 min at 37° C.) amounted to 53 nM.
On to `Cc1c(S(=O)(=O)c2ccc3[nH]ncc3c2)cc(C(=O)NCc2c(Cl)cnn2C)n1C1CC1` [B.188], for which the IC50 (37° C.) stood at 1.6 nM.
Same read-out and setting: for `Cc1c(S(=O)(=O)c2ccc3[nH]ncc3c2)cc(C(=O)NCc2cccc3c(F)nn(C4CC4)c23)n1C` [B.35] the value was 3.3 nM.
For the molecule `Cc1c(S(=O)(=O)c2ccc3[nH]ncc3c2)cc(C(=O)N[C@@H]2CCN(c3ccnnc3)C2)n1C` [A.78], the IC50 (45 min at 37° C.) amounted to 0.53 nM.
For `Cc1c(S(=O)(=O)c2cc(C(F)(F)F)c3[nH]ncc3c2)cc(C(=O)NCc2c(F)ccc3nnn(C4CC4)c23)n1C` [B.144], the IC50 (37° C.) came out at 1 nM.
The same measure, in the same setting: in the case of `Cc1c(S(=O)(=O)c2ccc3[nH]ncc3c2)cc(C(=O)NC2CCc3cc(C#N)ccc32)n1C` (stereo not drawn) [B.54] it was 2.3 nM; in that of `Cc1c(S(=O)(=O)c2cc(Cl)c3[nH]ncc3c2)cc(C(=O)NS(=O)(=NCC(F)(F)F)c2ccccc2)n1C` (stereo not drawn) [B.195], 12 nM; in that of `Cc1c(S(=O)(=O)c2ccc3[nH]ncc3c2)cc(C(=O)NCc2c(F)ccc3nnn(C4CC4)c23)n1C` [B.81], under 0.15 nM.
Same read-out and setting: in the case of `Cc1c(S(=O)(=O)c2cc(F)c3[nH]ncc3c2)cc(C(=O)NCc2ccnn2C)n1C` [B.137] it was 10 nM.
In the case of `Cc1c(S(=O)(=O)c2ccc3[nH]ncc3c2)cc(C(=O)N[C@@H]2CCN(Cc3ccc(C#N)cc3)C2)n1C` [A.101], for the setting “45 min at 37° C.”, the half-maximal inhibitory concentration (IC50) stood at 26 nM.
Still for that read-out and setting: in the case of `Cc1c(S(=O)(=O)c2cc(Cl)c3[nH]ncc3c2)cc(C(=O)N[C@@H]2CCN(c3ncc(F)cn3)C2)n1C` [A.41] it was under 0.15 nM; in that of `COc1ccccc1CNC(=O)c1cc(S(=O)(=O)c2ccc3c(cnn3C)c2)c(C)n1C` [A.23], 68 nM.
Regarding `Cc1c(S(=O)(=O)c2ccc3[nH]ncc3c2)cc(C(=O)NCC2(COc3ncc(F)cn3)CC2)n1C` [B.197], where the note is “37° C.”, the half-maximal inhibitory concentration (IC50) came to 2.7 nM.
Still for that read-out and setting: in the case of `COCCn1c(C(=O)NCc2c(Cl)cnn2C)cc(S(=O)(=O)c2cc(Cl)c3[nH]ncc3c2)c1C` [B.194] it was 1.1 nM.
As to `Cc1c(S(=O)(=O)c2ccc3[nH]ncc3c2)cc(C(=O)N[C@@H]2CCN(c3ccc(F)cc3C#N)C2)n1C` [A.82], the half-inhibitory concentration (IC50) (45 min at 37° C.) turned out to be 0.45 nM.
Same read-out and setting: for `Cc1c(S(=O)(=O)c2cccc(Cl)c2)cc(C(=O)NCc2cccc3cnn(C)c23)n1C` [A.9] the value was 2.1 nM.
With `Cc1c(S(=O)(=O)c2ccccc2)cc(C(=O)NCc2c(F)ccc3cnn(C4CC4)c23)n1C` [A.10], under “45 min at 37° C.”, the half-maximal inhibitory concentration (IC50) turned out to be 4.9 nM.
On the same count and under the same terms, in the case of `Cc1c(S(=O)(=O)c2ccc3nn[nH]c3c2)cc(C(=O)NCc2c(F)ccc3occc23)n1C` [A.31, 4-((1H-benzo[d][1,2,3]triazol-6-yl)sulfonyl)-N-((5-fluorobenzofuran-4-yl)methyl)-1,5-dimethyl-1H-pyrrole-2-carboxamide] it was 315 nM.

The values are drawn from US20260226034A1 (The Rockefeller University, priority 2023, published 2026).
